Experimental data published in PubChem BioAssay AID1250 (SRMLSC, 2008).
Activity calls are given as the source filed them.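 Rule for the calls: active = inhibition of at least 30% at one or more tested concentrations; inactive = inhibition below 30% at every dose.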

Test: inhibitors of Bluetongue virus cytopathic effect, confirmation, arbovirus, BSR cells (AID 1250)
Settings: BSR cells, Bluetongue virus CPE, ATP luminescence, 72 h; at 20 µM (top of the series)
In the case of `O=C(Nc1nc2ccccc2s1)c1ccc(OCC2CCCO2)cc1` (stereo not drawn), the CPE inhibition is reported as 5.66% (inactive). For `COc1cc(C(=O)Nc2sc(C)c(C)c2C(=O)O)cc(OC)c1OC`, the CPE inhibition was 26% (inactive). With `O=Cc1cn(-c2ccccc2)nc1-c1cc2cc(O)ccc2oc1=O` the CPE inhibition was 9.88% (inactive). In the case of `O=C1NC(=O)/C(=C\c2ccc(Oc3ccc([N+](=O)[O-])cn3)cc2)S1`, the CPE inhibition is reported as 12.8% (inactive). With `COc1ccc2cc(-c3cc(C(=O)O)c4ccccc4n3)ccc2c1` the CPE inhibition was 12.7% (inactive). For `CCOC(=O)c1cnc(SCc2nc(N)nc(Nc3ccc(C)cc3)n2)nc1N`, the CPE inhibition was 29.3% (inactive). For `Cc1cccc(/C(N)=N/OC(=O)COc2ccc(Cl)cc2)c1`, the CPE inhibition was 5.92% (inactive). For `O=C(Nc1sc2c(c1C(=O)O)CCCC2)c1cccs1`, the CPE inhibition was 25.3% (inactive). In the case of `CC1=Nc2ccc(C)cc2/C1=C/c1c(N)n2c(S(=O)(=O)C(C)C)nsc2nc1=O`, the CPE inhibition is reported as 15.9% (inactive). With `O=C(O)CSc1nnc(CNc2cccc(C(F)(F)F)c2)n1Cc1ccco1` the CPE inhibition was 3.89% (inactive). In the case of `COc1cccc2sc(NN)nc12`, the CPE inhibition is reported as 15.8% (inactive). For `CCOc1ccc(-n2c(=O)[nH]c3sc4c(c3c2=O)CCCC4)cc1`, the CPE inhibition was 16.6% (inactive). With `O=Cc1ccc(OCc2ccccn2)cc1` the CPE inhibition was 2.77% (inactive). For `O=C(O)c1cccc(NC(=S)NC(=O)c2ccc(-c3ccc(Cl)cc3)o2)c1`, the CPE inhibition was 29.9% (inactive). In the case of `N#Cc1c(NC(=O)C2CC(Cl)=CCC2C(=O)O)sc2c1CCCCC2` (stereo not drawn), the CPE inhibition is reported as 17.1% (inactive). In the case of `O=C(N/N=C/c1c(O)n(-c2ccccc2Cl)c(=O)c2ccccc12)c1cccnc1`, the CPE inhibition is reported as 26% (inactive). With `CCc1nnc(NC(=O)c2cc3ccccc3oc2=O)s1` the CPE inhibition was -0.17% (inactive). With `CC1CCCN(C(=O)c2cccc(S(=O)(=O)Nc3cc(C(F)(F)F)ccc3Cl)c2)C1` (stereo not drawn) the CPE inhibition was 28.2% (inactive). With `CN1CCc2nc3sc(C#N)c(N)c3c(-c3cccs3)c2C1` the CPE inhibition was 10.1% (inactive). For `CCCC(=O)Nc1cccc(NC(=O)c2ccc([N+](=O)[O-])cc2Cl)c1`, the CPE inhibition was 1.21% (inactive). For `COC(=O)c1cc(NC(=S)NCc2ccc(Cl)cc2)cc(C(=O)OC)c1`, the CPE inhibition was -1.18% (inactive). For `Fc1ccc(Br)cc1C1C=C(c2ccc(Br)cc2)Nc2ncnn21` (stereo not drawn), the CPE inhibition was 2.77% (inactive). For `O=C(NC(=S)NCCC1=CCCCC1)c1ccccc1Br`, the CPE inhibition was 28.5% (inactive). With `Cc1cccc(-n2nc(C)c3c(C(=O)O)cc(-c4cccs4)nc32)c1` the CPE inhibition was 24.9% (inactive). With `COc1cccc(C2CC(c3ccc(Cl)cc3Cl)Nc3nc(N)nn32)c1` (stereo not drawn) the CPE inhibition was 2.82% (inactive). In the case of `Cn1cc(CN2CCN(c3ccccc3)CC2)c2ccccc21`, the CPE inhibition is reported as 12% (inactive). With `C/C(=N\NC(=O)c1ccccc1)c1nc2ccccc2n1C` the CPE inhibition was -15.5% (inactive). For `COc1ccc2c(c1)c1nc3ccccc3nc1n2Cc1ccc(OC)c(OC)c1`, the CPE inhibition was 15.8% (inactive). For `CCCC(=O)Oc1ccccc1C1SCc2cc(C)c(C)cc2CS1`, the CPE inhibition was 6.38% (inactive). For `COc1ccccc1-n1c(C)cc(/C=C2/C(=N)N3C(=NC2=O)SN=C3S(C)(=O)=O)c1C`, the CPE inhibition was 18.1% (inactive). For `CC(C)CSC1=NSC2=NC(=O)/C(=C\c3cccs3)C(=N)N12`, the CPE inhibition was 28.6% (inactive). In the case of `Cc1nn(C)cc1CN(C)Cc1ccc(OCC(O)CN2CCCCC2)cc1` (stereo not drawn), the CPE inhibition is reported as 11.1% (inactive). In the case of `CC(C)S(=O)(=O)c1nsc2nc(=O)c(/C=C3\C=Nc4ccccc43)c(N)n12`, the CPE inhibition is reported as 22% (inactive). With `Cn1c(Oc2ccccc2NCc2cc(Br)ccc2O)cc(=O)n(C)c1=O` the CPE inhibition was 14.3% (inactive). With `CC(C)(C)C1CCc2c(sc(NC(=O)C3CC=CCC3C(=O)O)c2C#N)C1` (stereo not drawn) the CPE inhibition was 26.8% (inactive). In the case of `Cc1nn(-c2ccccc2)c2nc(C(F)(F)F)[nH]c(=O)c12`, the CPE inhibition is reported as 20% (inactive). In the case of `Cc1ccc(C(=O)N/C(=C\c2cccs2)C(=O)NCc2cccnc2)cc1`, the CPE inhibition is reported as 10.2% (inactive). With `CCCCCCCCCCCC(=O)NC(C(=O)O)C(O)c1ccccc1` (stereo not drawn) the CPE inhibition was 11.5% (inactive). In the case of `N#CC(C#N)=Cc1cc2ccccc2nc1N1CCCCC1`, the CPE inhibition is reported as 12.6% (inactive). For `CCOc1ccc(-n2c(=S)sc3c(=O)[nH]c(SCC(=O)C(C)(C)C)nc32)cc1`, the CPE inhibition was 7.23% (inactive). With `O=C(Nn1c(SCc2cccc([N+](=O)[O-])c2)nc2ccccc2c1=O)c1ccccc1` the CPE inhibition was 29.8% (inactive). With `CCCn1c(N)c(C(=O)CSc2nc3ccccc3c(=O)n2-c2ccc(OC)cc2)c(=O)[nH]c1=O` the CPE inhibition was 1.41% (inactive). For `N#C/C(=C\c1cc2ccccc2nc1N1CCCCC1)C(N)=O`, the CPE inhibition was 22.5% (inactive). In the case of `COc1ccc(C(=O)/C=C/c2ccc(OC)c(Cn3nnc4ccccc43)c2)cc1`, the CPE inhibition is reported as 15.8% (inactive). In the case of `O=S(=O)(Nc1ccc(-c2nnc(SCc3ccc(Cl)cc3)o2)cc1)c1ccccc1`, the CPE inhibition is reported as 7.09% (inactive). In the case of `Cc1ccc(CSCc2nc3ccccc3[nH]2)cc1`, the CPE inhibition is reported as 12.9% (inactive). For `Cc1cccc(CSc2nn3c(=O)c(C)nnc3s2)c1`, the CPE inhibition was 19.1% (inactive). In the case of `COCCn1c(SC(C)C(=O)Nc2ncc(Cl)cc2Cl)nc2ccccc21` (stereo not drawn), the CPE inhibition is reported as 21% (inactive).
